Measured values as given in patent EP4559461A1, “DUAL NLRP1 AND NLRP3 INHIBITORS FOR USE AS A MEDICAMENT” (Servicio Andaluz de Salud, priority 2023, dated 2025).
Where two headings read alike, the source gives them in different places. Each block holds one compound with its values, some of them ahead of it.

What was measured:
NLRP3 inflammasome = test: cytokines released into the culture medium after LPS+ATP activation (ELISA); format: cell-based; conditions: for IL-1β cytokine release: in vitro treatment, Figure 9; for IC50: estimated inhibitory capacity
Experimental: (§1) For biological assays, the THP-1 cell line (monocytes) was used and differentiated into macrophages using phorbol-12-myristate-13-acetate (PMA). They were then stimulated with 200 ng/mL ultrapure LPS for 4 hours, minus the negative control condition, to activate NLRP3 expression. At the same time, the necessary volume of the starting stock of each compound to be tested was added to reach the test concentration. After 4 h incubation at 37 °C, 5 mM ATP was added […] and incubated for 30 min to activate NLRP3 assembly. For NLRP1 activation, Valboropro, a specific inducer of this protein was used at 1µM for 24 hours. Protein expression levels were studied by western blot as a proteomic study and inflammation levels by determination of cytokines released into the medium by immunoassay techniques (ELISA).

THP-1 cell line = test: in vitro toxicity (cell viability); format: cell-based; conditions: regardless of the dose tested; Figure 6
[1] = ageing mouse model (age-related metabolic dysfunction); format: in vivo, C57BL/6J mice
Experimental: (§2) For a better characterization of the effect of C3, the inventors determined its effect in two in vivo models: ageing mice (to evaluate the effect in age-related metabolic dysfunction), and ovarian aging mice (to evaluate the effect in infertility because of ovarian aging).
18-month-old C57BL/6J mice were treated with C3 (10 mg/Kg/day i.p.) or with a vehicle solution (saline) for over 4 weeks.

[2] = test system: AIM-2, NLRP2, NLRC3 or NLRC4; test: expression of other inflammasome proteins (western blot, Figure 5); format: cell-based
Experimental: as §1
This is reflected by the increased ability of C3 to inhibit the expression of NLRP1, NLRP3, IL-1β and IL-18 compared to MCC950 and C5 (Figure 5 and Figure 8).

[3] = ovarian ageing mouse model; format: in vivo, mice
Text: as §2
The second model used to evaluate the effect of C3 was related to ovarian aging. The reason behind this is that NLRP1 and NLRP3 is over-expressed during ovarian ageing (Figure 15).
For this, the inventors used 9-month-old adult mice to which C3 was administered for one month.

NLRP1 = target: T1, NLRP1 (Homo sapiens, UniProt Q9C000); test: in vitro model of NLRP1 induction (ValboroPro) in THP-1 macrophages, protein expression by western blot; format: cell-based; conditions: ValboroPro (Vbp) induction; dose-dependent; Figure 3
T1 construct: the THP-1 cell line (monocytes) was used and differentiated into macrophages; endogenous in cells; host or cells: THP-1 monocytes differentiated into macrophages with PMA
T1 sequence (Q9C000 1-1473): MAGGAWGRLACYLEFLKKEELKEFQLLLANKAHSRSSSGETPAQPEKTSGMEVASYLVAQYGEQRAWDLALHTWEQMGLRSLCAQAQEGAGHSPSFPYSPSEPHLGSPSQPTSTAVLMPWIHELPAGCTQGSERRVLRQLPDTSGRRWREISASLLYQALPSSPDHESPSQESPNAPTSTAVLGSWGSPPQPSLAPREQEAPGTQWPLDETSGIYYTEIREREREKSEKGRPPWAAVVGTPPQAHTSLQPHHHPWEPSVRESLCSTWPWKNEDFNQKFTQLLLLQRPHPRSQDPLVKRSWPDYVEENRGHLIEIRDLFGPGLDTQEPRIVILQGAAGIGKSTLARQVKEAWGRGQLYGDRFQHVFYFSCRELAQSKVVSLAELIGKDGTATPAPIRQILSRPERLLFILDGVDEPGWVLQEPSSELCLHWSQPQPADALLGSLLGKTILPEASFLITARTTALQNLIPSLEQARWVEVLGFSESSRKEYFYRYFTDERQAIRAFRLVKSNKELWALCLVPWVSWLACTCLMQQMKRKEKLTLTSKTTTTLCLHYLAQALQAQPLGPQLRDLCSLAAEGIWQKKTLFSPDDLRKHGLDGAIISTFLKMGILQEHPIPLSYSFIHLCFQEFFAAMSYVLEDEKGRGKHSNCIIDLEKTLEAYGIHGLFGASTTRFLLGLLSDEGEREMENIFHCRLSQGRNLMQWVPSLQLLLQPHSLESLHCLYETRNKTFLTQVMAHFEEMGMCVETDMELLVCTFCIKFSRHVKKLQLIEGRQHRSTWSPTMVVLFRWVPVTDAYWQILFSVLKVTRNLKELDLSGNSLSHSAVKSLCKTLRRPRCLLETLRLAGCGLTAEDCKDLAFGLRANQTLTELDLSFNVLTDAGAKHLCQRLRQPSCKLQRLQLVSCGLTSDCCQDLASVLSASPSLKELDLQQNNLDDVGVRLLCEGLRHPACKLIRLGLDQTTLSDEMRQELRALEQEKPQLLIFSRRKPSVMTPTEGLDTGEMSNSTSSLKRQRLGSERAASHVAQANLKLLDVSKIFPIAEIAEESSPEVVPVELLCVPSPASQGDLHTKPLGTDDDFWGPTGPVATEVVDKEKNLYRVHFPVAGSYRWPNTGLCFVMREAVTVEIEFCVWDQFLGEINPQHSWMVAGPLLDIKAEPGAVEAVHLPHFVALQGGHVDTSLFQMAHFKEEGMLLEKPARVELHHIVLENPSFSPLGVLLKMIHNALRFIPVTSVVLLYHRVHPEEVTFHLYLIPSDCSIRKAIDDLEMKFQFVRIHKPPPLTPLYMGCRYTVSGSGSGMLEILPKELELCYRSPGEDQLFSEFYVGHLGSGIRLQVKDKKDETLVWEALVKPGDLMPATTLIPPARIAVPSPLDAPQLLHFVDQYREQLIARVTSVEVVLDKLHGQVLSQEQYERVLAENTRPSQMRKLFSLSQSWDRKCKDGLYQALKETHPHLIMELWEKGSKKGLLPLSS
Experimental: as §1
(§3) The inventors of the present invention evaluated the inhibitory effects of compound C3 in an in vitro model of NLRP3 induction (LPS + ATP), and in an […] model of NLRP1 induction (ValboroPro or Vbp).

NEK7 to NLRP3 = target: T2, NEK7 to NLRP3 (Homo sapiens, UniProt Q96P20); test: NEK7 co-immunoprecipitation; format: binding; conditions: Figure 7
T2 construct: For biological assays, the THP-1 cell line (monocytes) was used; endogenous in cells
Text: One of the possible mechanisms for NLRP3 inhibition is the inhibition of its binding to NEK7, since it has been shown that NEK7 interacts with NLRP3 to modulate NLRP3 inflammasome activation.

NLRP3 = target: T3, NLRP3 (Homo sapiens, UniProt Q96P20); test: in vitro model of NLRP3 induction (LPS + ATP) in PMA-differentiated THP-1 macrophages, protein expression by western blot; format: cell-based
T3 construct: the THP-1 cell line (monocytes) was used and differentiated into macrophages; endogenous in cells; host or cells: THP-1 monocytes differentiated into macrophages with PMA
Experimental: as §1, §3

[4] = 18-month-old mice, 10 mg/Kg/day i.p., over 4 weeks, vs vehicle, Figure 10
[5] = ageing mice, 10 mg/Kg/day i.p., Figure 12
[6] = microscopic liver sections, Figure 12
[7] = old mice, 10 mg/Kg/day i.p., Figure 11
[8] = 9-month-old mice, administered for one month, Figure 13
[9] = histological staining, vs vehicle, Figure 14

T3 sequence (Q96P20 whole entry): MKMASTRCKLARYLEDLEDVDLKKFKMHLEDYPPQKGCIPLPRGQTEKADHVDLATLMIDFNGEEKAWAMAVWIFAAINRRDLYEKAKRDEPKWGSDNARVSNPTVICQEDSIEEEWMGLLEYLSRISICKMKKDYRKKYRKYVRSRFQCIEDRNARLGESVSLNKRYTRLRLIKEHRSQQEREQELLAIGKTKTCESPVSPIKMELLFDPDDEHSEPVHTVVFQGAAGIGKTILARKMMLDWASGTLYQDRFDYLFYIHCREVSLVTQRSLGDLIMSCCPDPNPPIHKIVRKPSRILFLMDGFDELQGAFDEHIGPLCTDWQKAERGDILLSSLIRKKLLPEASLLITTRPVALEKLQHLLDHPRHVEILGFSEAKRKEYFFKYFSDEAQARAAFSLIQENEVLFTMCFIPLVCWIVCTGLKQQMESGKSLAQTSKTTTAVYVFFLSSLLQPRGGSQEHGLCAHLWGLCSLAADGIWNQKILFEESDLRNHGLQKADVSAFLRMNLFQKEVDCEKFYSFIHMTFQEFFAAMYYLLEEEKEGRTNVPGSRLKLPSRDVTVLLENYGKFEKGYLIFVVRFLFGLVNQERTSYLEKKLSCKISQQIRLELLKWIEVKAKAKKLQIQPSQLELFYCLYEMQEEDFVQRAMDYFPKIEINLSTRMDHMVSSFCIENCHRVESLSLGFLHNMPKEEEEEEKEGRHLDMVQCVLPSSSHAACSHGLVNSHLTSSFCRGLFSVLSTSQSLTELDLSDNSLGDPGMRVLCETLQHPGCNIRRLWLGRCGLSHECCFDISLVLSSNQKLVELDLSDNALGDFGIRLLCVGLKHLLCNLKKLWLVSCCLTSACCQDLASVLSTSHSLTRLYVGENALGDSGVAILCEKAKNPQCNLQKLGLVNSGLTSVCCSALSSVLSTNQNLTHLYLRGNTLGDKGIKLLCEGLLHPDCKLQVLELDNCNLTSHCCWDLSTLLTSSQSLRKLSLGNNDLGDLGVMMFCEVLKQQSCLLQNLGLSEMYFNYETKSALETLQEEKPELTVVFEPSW
T2 sequence (Q96P20 whole entry): as above

Compound: COc1ccc(CNS(C)(=O)=O)cc1 [Compound C1, N-(4-methoxybenzyl) methanesulfonamide]
IL-1β cytokine release (NLRP3 inflammasome): reduction

Compound: CS(=O)(=O)NCc1ccc2c(c1)OCO2 [Compound C2, N-(4,5-methylenedioxybenzyl) methanesulfonamide]
IL-1β cytokine release (NLRP3 inflammasome): reduction

expression of NLRP1 (NLRP1): inhibited the expression
binding of NEK7 to NLRP3 (NEK7 to NLRP3): inhibited the binding
expression of NLRP3 (NLRP3; LPS + ATP induction, dose-dependent, Figure 3): inhibited the expression
expression of the inflammasome activation-associated protein IL-1β (NLRP3; LPS+ATP or VbP induction, dose-dependent, Figure 3): reduced the expression
inhibitory capacity (expression of NLRP1, NLRP3, IL-1β and IL-18) (NLRP3; compared to MCC950 and C5, Figure 5 and Figure 8): increased inhibitory capacity
IC50 (NLRP3 inflammasome; Figure 4A, read-out: IC50 (IL-1β) release into the culture medium): 5.38 nM
IC50 (NLRP3 inflammasome; Figure 4B, read-out: IC50 (IL-18) release into the culture medium): 4450 nM
Compound: CS(=O)(=O)NCc1cccc2ccccc12 [Compound C3, N-(naphthalen-1-ylmethyl) methanesulfonamide]
cell viability (THP-1 cell line): above 85%
abdominal fat [1, 4]: significantly reduced
body weight [1, 4]: significantly reduced
NLRP1 protein expression [1, 5]: significant reduction
NLRP3 protein expression [1, 5]: significant reduction
serum IL1β levels [1, 5]: significant reduction
age-associated hepatic fibrosis [1, 6]: significantly reduced
age-associated hepatic steatosis [1, 6]: significantly reduced
glucose levels upon glucose challenges at the OGTT peak (>15 min) ([1]; old mice, 10 mg/Kg/day i.p., vs control, Figure 11): significantly decreased
serum leptin/adiponectin [1, 7]: reduced
serum levels of adiponectin [1, 7]: reduced
serum levels of leptin [1, 7]: reduced
modulation of other inflammasome proteins such as AIM-2, NLRP2, NLRC3 or NLRC4 [2]: did not result in the modulation
AMH receptor [3, 8]: increase
Follicle-stimulating hormone (FSH) [3, 8]: reduction
antimüllerian hormone (AMH) [3, 8]: significant increase
protein levels of active Caspase 1 [3, 8]: decreased
protein levels of active IL-1β [3, 8]: decreased
improvement of the ovarian reserve by AMH hormone ([3]; compared to NLRP1 KO and NLRP3 KO mice, Figure 15): significantly higher improvement
percentage of atretic follicles [3, 9]: lower percentage
percentage of follicles [3, 9]: higher percentage

Compound: CS(=O)(=O)NCc1ccc(Cl)cc1 [Compound C4, N-(4-chlorobenzyl) methanesulfonamide]
IL-1β cytokine release (NLRP3 inflammasome): reduction

Compound: O=S(=O)(Cc1ccc2ccccc2c1)NCc1ccccc1 [Compound C7, N-benzyl-1-(naphthalen-2-yl) methanesulfonamide]
IL-1β cytokine release (NLRP3 inflammasome): reduction
